Experimental data taken from PubChem BioAssay (NCI).
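48-hour exposure; five concentrations; linearly interpolated endpoints. GI50 = concentration required for 50% inhibition of growth. TGI: concentration producing complete growth inhibition.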

How the values were obtained:
Assay in all cases: NCI anticancer screen, dose series, 48 h; in the data active = GI50 below about 0.43 µM; inactive = the rest
HT29 colon = system: HT29 colon
HS 578T breast = system: HS 578T breast
HCC-2998 colon = system: HCC-2998 colon
UO-31 renal = system: UO-31 renal
MOLT-4 leukemia = system: MOLT-4 leukemia
SK-MEL-5 melanoma = system: SK-MEL-5 melanoma
NCI/ADR-RES ovarian = system: NCI/ADR-RES ovarian
NCI-H23 lung = system: NCI-H23 lung
SNB-75 CNS = system: SNB-75 CNS
SNB-19 CNS = system: SNB-19 CNS
DU-145 prostate = system: DU-145 prostate
M14 melanoma = system: M14 melanoma
UACC-62 melanoma = system: UACC-62 melanoma
RPMI-8226 leukemia = system: RPMI-8226 leukemia
HOP-62 NSCLC = system: HOP-62 NSCLC
OVCAR-8 ovarian = system: OVCAR-8 ovarian
SW-620 colon = system: SW-620 colon
T-47D breast = system: T-47D breast
SF-268 CNS = system: SF-268 CNS
KM12 colon = system: KM12 colon
PC-3 prostate = system: PC-3 prostate
SF-295 CNS = system: SF-295 CNS
OVCAR-4 ovarian = system: OVCAR-4 ovarian
786-0 renal = system: 786-0 renal
ACHN renal = system: ACHN renal
COLO 205 colon = system: COLO 205 colon
MALME-3M melanoma = system: MALME-3M melanoma
SN12C renal = system: SN12C renal
A549 NSCLC = system: A549 NSCLC
NCI-H522 lung = system: NCI-H522 lung
SK-MEL-28 melanoma = system: SK-MEL-28 melanoma
UACC-257 melanoma = system: UACC-257 melanoma
OVCAR-5 ovarian = system: OVCAR-5 ovarian
TK-10 renal = system: TK-10 renal
NCI-H460 lung = system: NCI-H460 lung
IGROV1 ovarian = system: IGROV1 ovarian
MDA-MB-231 breast = system: MDA-MB-231 breast
BT-549 breast = system: BT-549 breast
OVCAR-3 ovarian = system: OVCAR-3 ovarian
SK-MEL-2 melanoma = system: SK-MEL-2 melanoma
MCF7 breast = system: MCF7 breast
SF-539 CNS = system: SF-539 CNS
NCI-H226 lung = system: NCI-H226 lung
LOX IMVI melanoma = system: LOX IMVI melanoma
EKVX NSCLC = system: EKVX NSCLC
SK-OV-3 ovarian = system: SK-OV-3 ovarian
HCT-15 colon = system: HCT-15 colon
U251 CNS = system: U251 CNS
HL-60(TB) leukemia = system: HL-60(TB) leukemia
A498 renal = system: A498 renal
MDA-MB-435 = system: MDA-MB-435
CCRF-CEM leukemia = system: CCRF-CEM leukemia
CAKI-1 renal = system: CAKI-1 renal
HCT-116 colon = system: HCT-116 colon
HOP-92 NSCLC = system: HOP-92 NSCLC
SR leukemia = system: SR leukemia
K-562 leukemia = system: K-562 leukemia

CC1(N)CCN(c2cnc(-c3cccc(Cl)c3Cl)c(N)n2)CC1
77.6 µM: TGI (HCC-2998 colon)
32.1 µM: TGI (MALME-3M melanoma)
60.5 µM: TGI (SK-OV-3 ovarian)
53.2 µM: TGI (TK-10 renal)
27.2 µM: TGI (SF-295 CNS)
inactive: GI50 (HT29 colon) 26.7 µM | GI50 (HS 578T breast) 13.3 µM | GI50 (HCC-2998 colon) 22 µM | GI50 (UO-31 renal) 3.3 µM | GI50 (MOLT-4 leukemia) 22.7 µM | GI50 (SK-MEL-5 melanoma) 15.2 µM | GI50 (NCI/ADR-RES ovarian) 17 µM | GI50 (NCI-H23 lung) 5.99 µM | GI50 (SNB-75 CNS) 7.24 µM | GI50 (SNB-19 CNS) 7.63 µM | GI50 (DU-145 prostate) 56.5 µM | GI50 (M14 melanoma) 16.4 µM | GI50 (UACC-62 melanoma) 19.1 µM | GI50 (RPMI-8226 leukemia) 13.8 µM | GI50 (HOP-62 NSCLC) 4.28 µM | GI50 (OVCAR-8 ovarian) 28.2 µM | GI50 (SW-620 colon) 19.3 µM | GI50 (T-47D breast) 17.3 µM | GI50 (SF-268 CNS) 22.7 µM | GI50 (KM12 colon) 7.13 µM | GI50 (PC-3 prostate) 26.7 µM | GI50 (SF-295 CNS) 11.1 µM | GI50 (OVCAR-4 ovarian) 7.47 µM | GI50 (786-0 renal) 8.36 µM | GI50 (ACHN renal) 10.9 µM | GI50 (COLO 205 colon) 16.9 µM | GI50 (MALME-3M melanoma) 16.4 µM | GI50 (SN12C renal) 15.6 µM | GI50 (A549 NSCLC) 16.6 µM | GI50 (NCI-H522 lung) 14.9 µM | GI50 (SK-MEL-28 melanoma) 16.3 µM | GI50 (UACC-257 melanoma) 17 µM | GI50 (OVCAR-5 ovarian) 27.7 µM | GI50 (TK-10 renal) 2.8 µM | GI50 (NCI-H460 lung) 32.7 µM | GI50 (IGROV1 ovarian) 6.48 µM | GI50 (MDA-MB-231 breast) 18.2 µM | GI50 (BT-549 breast) 10.8 µM | GI50 (OVCAR-3 ovarian) 35.1 µM | GI50 (SK-MEL-2 melanoma) 20.1 µM | GI50 (MCF7 breast) 17.2 µM | GI50 (SF-539 CNS) 12.9 µM | GI50 (NCI-H226 lung) 3.2 µM | GI50 (LOX IMVI melanoma) 15.3 µM | GI50 (EKVX NSCLC) 2.58 µM | GI50 (SK-OV-3 ovarian) 3.02 µM | GI50 (HCT-15 colon) 28.3 µM | GI50 (U251 CNS) 9.02 µM | GI50 (HL-60(TB) leukemia) 41.9 µM | GI50 (A498 renal) 2.49 µM | GI50 (MDA-MB-435) 28.3 µM | GI50 (CCRF-CEM leukemia) 23.2 µM | GI50 (CAKI-1 renal) 14.8 µM | GI50 (HCT-116 colon) 14.5 µM | GI50 (HOP-92 NSCLC) 0.553 µM | GI50 (SR leukemia) 7.6 µM
29 µM: TGI (HCT-116 colon)
40.1 µM: TGI (RPMI-8226 leukemia)
31.5 µM: TGI (SF-539 CNS)
28.6 µM: TGI (SK-MEL-5 melanoma)
12 µM: TGI (A498 renal)
5.44 µM: TGI (HOP-92 NSCLC)
99.3 µM: TGI (MOLT-4 leukemia)
65.8 µM: TGI (NCI-H522 lung)
48.7 µM: TGI (MDA-MB-231 breast)
30 µM: TGI (LOX IMVI melanoma)
35.5 µM: TGI (COLO 205 colon)
35.2 µM: TGI (UACC-257 melanoma)
68.4 µM: TGI (T-47D breast)
61.5 µM: TGI (HOP-62 NSCLC)
> 100 µM: TGI (HT29 colon) | TGI (NCI/ADR-RES ovarian) | TGI (NCI-H23 lung) | TGI (SNB-19 CNS) | TGI (DU-145 prostate) | TGI (OVCAR-8 ovarian) | TGI (SW-620 colon) | TGI (SF-268 CNS) | TGI (KM12 colon) | TGI (PC-3 prostate) | TGI (OVCAR-4 ovarian) | TGI (ACHN renal) | TGI (SN12C renal) | TGI (A549 NSCLC) | TGI (OVCAR-5 ovarian) | TGI (NCI-H460 lung) | TGI (IGROV1 ovarian) | TGI (OVCAR-3 ovarian) | TGI (NCI-H226 lung) | TGI (EKVX NSCLC) | TGI (HCT-15 colon) | TGI (HL-60(TB) leukemia) | TGI (MDA-MB-435) | TGI (CCRF-CEM leukemia) | TGI (CAKI-1 renal)
27 µM: TGI (SNB-75 CNS)
17.9 µM: TGI (UO-31 renal)
91.2 µM: TGI (U251 CNS)
80 µM: TGI (SR leukemia)
46.4 µM: TGI (SK-MEL-2 melanoma)
22 µM: TGI (786-0 renal)
32.3 µM: TGI (SK-MEL-28 melanoma)
33.2 µM: TGI (M14 melanoma)
64 µM: TGI (HS 578T breast)
37.2 µM: TGI (MCF7 breast)
26.2 µM: TGI (BT-549 breast)
39.9 µM: TGI (UACC-62 melanoma)

NS(=O)(=O)NCCNc1nonc1C(=Nc1ccc(F)c(Br)c1)NO
97 µM: TGI (SK-MEL-2 melanoma)
86.2 µM: TGI (HOP-92 NSCLC)
77.5 µM: TGI (HCC-2998 colon)
97.5 µM: TGI (NCI-H522 lung)
> 100 µM: TGI (HT29 colon) | TGI (HS 578T breast) | TGI (UO-31 renal) | TGI (MOLT-4 leukemia) | TGI (SK-MEL-5 melanoma) | TGI (NCI/ADR-RES ovarian) | TGI (NCI-H23 lung) | TGI (SNB-75 CNS) | TGI (SNB-19 CNS) | TGI (DU-145 prostate) | TGI (M14 melanoma) | TGI (UACC-62 melanoma) | TGI (RPMI-8226 leukemia) | TGI (HOP-62 NSCLC) | TGI (K-562 leukemia) | TGI (OVCAR-8 ovarian) | TGI (SW-620 colon) | TGI (T-47D breast) | TGI (SF-268 CNS) | TGI (KM12 colon) | TGI (PC-3 prostate) | TGI (SF-295 CNS) | TGI (OVCAR-4 ovarian) | TGI (786-0 renal) | TGI (ACHN renal) | TGI (COLO 205 colon) | TGI (MALME-3M melanoma) | TGI (SN12C renal) | TGI (A549 NSCLC) | TGI (SK-MEL-28 melanoma) | TGI (OVCAR-5 ovarian) | TGI (TK-10 renal) | TGI (NCI-H460 lung) | TGI (IGROV1 ovarian) | TGI (MDA-MB-231 breast) | TGI (BT-549 breast) | TGI (OVCAR-3 ovarian) | TGI (MCF7 breast) | TGI (SF-539 CNS) | TGI (NCI-H226 lung) | TGI (LOX IMVI melanoma) | TGI (EKVX NSCLC) | TGI (SK-OV-3 ovarian) | TGI (HCT-15 colon) | TGI (U251 CNS) | TGI (HL-60(TB) leukemia) | TGI (MDA-MB-435) | TGI (CCRF-CEM leukemia) | TGI (CAKI-1 renal) | TGI (HCT-116 colon) | TGI (SR leukemia)
inactive: GI50 (HT29 colon) 66 µM | GI50 (HS 578T breast) 30.3 µM | GI50 (HCC-2998 colon) 27.4 µM | GI50 (UO-31 renal) 24.8 µM | GI50 (MOLT-4 leukemia) 30.8 µM | GI50 (SK-MEL-5 melanoma) 31.9 µM | GI50 (NCI/ADR-RES ovarian) > 100 µM | GI50 (NCI-H23 lung) 28.9 µM | GI50 (SNB-75 CNS) 15.2 µM | GI50 (SNB-19 CNS) 48.2 µM | GI50 (DU-145 prostate) 51.2 µM | GI50 (M14 melanoma) 28.1 µM | GI50 (UACC-62 melanoma) 25.9 µM | GI50 (RPMI-8226 leukemia) 37.9 µM | GI50 (HOP-62 NSCLC) > 100 µM | GI50 (K-562 leukemia) 35.4 µM | GI50 (OVCAR-8 ovarian) 56.5 µM | GI50 (SW-620 colon) 51.1 µM | GI50 (T-47D breast) 35.1 µM | GI50 (SF-268 CNS) 38.8 µM | GI50 (KM12 colon) 34.8 µM | GI50 (PC-3 prostate) 31.8 µM | GI50 (SF-295 CNS) 27 µM | GI50 (OVCAR-4 ovarian) 32.8 µM | GI50 (786-0 renal) 48.8 µM | GI50 (ACHN renal) 31.2 µM | GI50 (COLO 205 colon) 47.6 µM | GI50 (MALME-3M melanoma) 28.5 µM | GI50 (SN12C renal) 41.3 µM | GI50 (A549 NSCLC) 68.9 µM | GI50 (NCI-H522 lung) 36.2 µM | GI50 (SK-MEL-28 melanoma) 48.3 µM | GI50 (OVCAR-5 ovarian) 69.4 µM | GI50 (TK-10 renal) 29.8 µM | GI50 (NCI-H460 lung) 35.9 µM | GI50 (IGROV1 ovarian) 52.3 µM | GI50 (MDA-MB-231 breast) 34 µM | GI50 (BT-549 breast) 40.9 µM | GI50 (OVCAR-3 ovarian) 34.6 µM | GI50 (SK-MEL-2 melanoma) 27.8 µM | GI50 (MCF7 breast) 32.9 µM | GI50 (SF-539 CNS) 37.5 µM | GI50 (NCI-H226 lung) 47.7 µM | GI50 (LOX IMVI melanoma) 27.9 µM | GI50 (EKVX NSCLC) 34.8 µM | GI50 (SK-OV-3 ovarian) 67.4 µM | GI50 (HCT-15 colon) 39.4 µM | GI50 (U251 CNS) 53.1 µM | GI50 (HL-60(TB) leukemia) 36.9 µM | GI50 (MDA-MB-435) 32 µM | GI50 (CCRF-CEM leukemia) 49.8 µM | GI50 (CAKI-1 renal) 33.8 µM | GI50 (HCT-116 colon) 42.6 µM | GI50 (HOP-92 NSCLC) 23.6 µM | GI50 (SR leukemia) 30.2 µM
